From patent publication US20240251790A1 (priority 2021, published 2024)

What was measured:
Format in all cases: cell-based
yeast and mold (YM) = test system: yeast and mold (YM)
[1] = test system: total microbial count (APC)
coliforms (ECC) = test system: coliforms (ECC)

## Percitric acid [PCA]
Yeast and mold (YM)
  effect on YM: minimal effect
[1]
  efficiency against APC: efficient
Coliforms (ECC)
  efficiency against ECC: efficient
